From Sander's compilation of Henry's law constants (doi:10.1021/jf001510f)

Experiment: Henry solubility constant Hcp at 310 K (mol/(m3 Pa))
Conditions: reference: van Ruth et al. (2001)

Question: For `CCCCCCO` [1-hexanol], which “Henry solubility constant Hcp at 310 K” value is on record?
Answer: The value was 0.16.

Question: With `CCCO` [1-propanol] as the compound, how does the “Henry solubility constant Hcp at 310 K” value read?
Answer: Its value is 0.65.

Question: For `CCCCCCCCC(C)=O` [2-decanone], which “Henry solubility constant Hcp at 310 K” value is on record?
Answer: The value was 0.015.

Question: Which “Henry solubility constant Hcp at 310 K” value does the source give for `CCCCCC(C)=O` [2-heptanone] here?
Answer: The value was 0.025.

Question: For `CCCCCCCC(C)O` (stereo not given) [2-nonanol], which “Henry solubility constant Hcp at 310 K” value is on record?
Answer: Its value is 0.069.

Question: Which “Henry solubility constant Hcp at 310 K” value does the source give for `CCCCCCC(C)=O` [2-octanone] here?
Answer: Its value is 0.018.

Question: Which “Henry solubility constant Hcp at 310 K” value does the source give for `CCCC(C)O` (stereo not given) [2-pentanol] here?
Answer: Its value is 0.23.

Question: For `CC(C)CCO` [3-methyl-1-butanol], which “Henry solubility constant Hcp at 310 K” value is on record?
Answer: Its value is 0.32.

Question: Which “Henry solubility constant Hcp at 310 K” value does the source give for `CCCCOC(C)=O` [butyl ethanoate] here?
Answer: Its value is 0.017.

Question: With `CSC` [dimethyl sulfide] as the compound, how does the “Henry solubility constant Hcp at 310 K” value read?
Answer: The value was 0.0049.

Question: For `CCCC(=O)OCC` [ethyl butanoate], which “Henry solubility constant Hcp at 310 K” value is on record?
Answer: The value was 0.016.

Question: For `CCOC(C)=O` [ethyl ethanoate], which “Henry solubility constant Hcp at 310 K” value is on record?
Answer: The value was 0.03.

Question: With `CCCCCCC=O` [heptanal] as the compound, how does the “Henry solubility constant Hcp at 310 K” value read?
Answer: The value was 0.011.

Question: With `CCCCCCCC=O` [octanal] as the compound, how does the “Henry solubility constant Hcp at 310 K” value read?
Answer: The value was 0.0088.

Question: For `CCCOC(C)=O` [propyl ethanoate], which “Henry solubility constant Hcp at 310 K” value is on record?
Answer: The value was 0.018.
